This passage reports IC50 results from patent US12565501B2, “Muscarinic acetylcholine M1 receptor antagonists” (Contineum Therapeutics, Inc., priority 2019, dated 2026).

For orientation: pIC50 means −log10 of the IC50, conventionally taken in molar units.

pIC50: −log10 of the molar value. Bounds are passed on as bounds.

The assay concerns the target T1, human M1 receptor (Homo sapiens, UniProt P11229).
T1 sequence (P11229 1-460): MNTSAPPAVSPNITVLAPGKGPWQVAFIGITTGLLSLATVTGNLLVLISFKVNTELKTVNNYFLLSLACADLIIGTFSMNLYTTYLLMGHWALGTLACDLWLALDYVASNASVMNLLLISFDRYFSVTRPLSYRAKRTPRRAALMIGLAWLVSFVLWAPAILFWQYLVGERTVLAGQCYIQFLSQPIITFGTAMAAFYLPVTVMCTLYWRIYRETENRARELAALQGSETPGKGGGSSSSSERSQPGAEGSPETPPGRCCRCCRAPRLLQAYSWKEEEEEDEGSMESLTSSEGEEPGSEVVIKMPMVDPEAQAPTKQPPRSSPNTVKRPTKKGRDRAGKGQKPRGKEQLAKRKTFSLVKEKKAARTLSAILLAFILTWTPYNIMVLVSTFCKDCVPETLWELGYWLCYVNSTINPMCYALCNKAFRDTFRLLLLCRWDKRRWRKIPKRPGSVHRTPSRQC
Put plainly: In vitro functional assay of muscarinic acetylcholine receptor activity (aequorin calcium flux, reversal of EC80 acetylcholine response). The note with it: CHO-K1 cells stably expressing human M1 receptor with aequorin; acetylcholine at EC80; calcium flux (luminescence); read-out: M1 IC50. It is filed as cell-based. An outline of the steps:
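Antagonist mode: compound (final 0.1% DMSO) and coelenterazine-loaded M1/aequorin CHO-K1 cells incubated 30 min in the dark before EC80 acetylcholine addition. Calcium flash integrated as 40 s luminescence AUC; IC50 derived from dose-response curves.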
For `COc1ccc(C2(OCC(=O)N3CC4CCC(C3)N4c3ccc(C#N)cn3)CCC2)nc1` [Example 256, 6-(3-(2-(1-(5-methoxypyridin-2-yl)cyclobutoxy)acetyl)-3,8-diazabicyclo[3.2.1]octan-8-yl)nicotinonitrile], the pIC50 is 5.00 to 6.00.
For `COc1cccc(C2(NCC(=O)N3CC4CCC(C3)N4c3ccc(C#N)cn3)CCC2)c1` [Example 114, 6-(3-((1-(3-methoxyphenyl)cyclobutyl)glycyl)-3,8-diazabicyclo[3.2.1]octan-8-yl)nicotinonitrile] the value was above 8.00.
For the molecule `N#Cc1cc(N2C3CCC2CN(C(=O)COC2(c4ccncc4F)CCC2)C3)ccn1` [Example 282, 4-(3-(2-(1-(3-fluoropyridin-4-yl)cyclobutoxy)acetyl)-3,8-diazabicyclo[3.2.1]octan-8-yl)picolinonitrile], the pIC50 is 7.00 to 8.00.
Regarding `N#Cc1ccc(N2C3CCC2CN(C(=O)COC2(c4ccncc4F)CCC2)C3)nc1` [Example 247, 6-(3-(2-(1-(3-fluoropyridin-4-yl)cyclobutoxy)acetyl)-3,8-diazabicyclo[3.2.1]octan-8-yl)nicotinonitrile], the negative-log IC50 (pIC50) was above 8.00.
Take `Cn1ccc(=O)c(C2(OCC(=O)N3CC4CCC(C3)N4c3ccc(C#N)cn3)CC2)c1` [Example 302, 6-(3-(2-(1-(1-methyl-4-oxo-1,4-dihydropyridin-3-yl)cyclopropoxy)acetyl)-3,8-diazabicyclo[3.2.1]octan-8-yl)nicotinonitrile]: the pIC50 was below 6.00.
The value for `CC(c1ccc(F)cc1)[S+]([O-])CC(=O)N1CC2CCC(C1)N2c1ccc(C#N)cn1` (racemic) [Example 167, 6-(3-(2-((1-(4-fluorophenyl)ethyl)sulfinyl)acetyl)-3,8-diazabicyclo[3.2.1]octan-8-yl)nicotinonitrile] was 6.00 to 7.00; that for `N#Cc1ccc(N2C[C@@H]3C[C@H]2CN3C(=O)COC2(c3ccc(F)c(F)c3)CC2)nc1` [Example 287, 6-((1S,4S)-5-(2-(1-(3,4-difluorophenyl)cyclopropoxy)acetyl)-2,5-diazabicyclo[2.2.1]heptan-2-yl)nicotinonitrile] was 5.00 to 6.00; that for `N#Cc1ccc(N2C3CCC2CN(C(=O)CNC2(c4cccc(F)c4)CC2)C3)nc1` [Example 95, 6-(3-((1-(3-fluorophenyl)cyclopropyl)glycyl)-3,8-diazabicyclo[3.2.1]octan-8-yl)nicotinonitrile] was 7.00 to 8.00.
Regarding `COc1cc(C(F)(F)C2CC2C(=O)N2CC3CCC(C2)N3c2ccc(C#N)cn2)ccn1` (racemic) [Example 166, 6-(3-(2-(difluoro(2-methoxypyridin-4-yl)methyl)cyclopropane-1-carbonyl)-3,8-diazabicyclo[3.2.1]octan-8-yl)nicotinonitrile], the negative-log IC50 (pIC50) was 5.00 to 6.00.
For the molecule `COc1cc(C(F)(F)CCC(=O)N2C[C@@H]3C[C@H]2CN3c2ccc(C#N)cn2)ccn1` [Example 154, 6-((1S,4S)-5-(4,4-difluoro-4-(2-methoxypyridin-4-yl)butanoyl)-2,5-diazabicyclo[2.2.1]heptan-2-yl)nicotinonitrile], the negative-log IC50 (pIC50) is 5.00 to 6.00.
For `N#Cc1ccc(N2C3CCC2CN(C(=O)COC2(c4cncc(O)c4)CCC2)C3)nc1` [Example 313, 6-(3-(2-(1-(5-hydroxypyridin-3-yl)cyclobutoxy)acetyl)-3,8-diazabicyclo[3.2.1]octan-8-yl)nicotinonitrile] the value was above 8.00; for `COc1cc(C(F)(F)CCC(=O)N2C[C@@H]3CC[C@H]2CN3c2ccc(C#N)cn2)ccn1` [Example 155, 6-((1S,4S)-5-(4,4-difluoro-4-(2-methoxypyridin-4-yl)butanoyl)-2,5-diazabicyclo[2.2.2]octan-2-yl)nicotinonitrile], 7.00 to 8.00; for `N#Cc1cnc(N2[C@@H]3CC[C@H]2CN(C(=O)CCNC2(c4ccc(F)c(F)c4)CC2)C3)nc1` [Example 44, 2-(3-(3-((1-(3,4-difluorophenyl)cyclopropyl)amino)propanoyl)-3,8-diazabicyclo[3.2.1]octan-8-yl)pyrimidine-5-carbonitrile], 6.00 to 7.00.
